Source: patent publication US5981541A, “Substituted heterocycles as anti-tumor agents” (Rutgers, The State University of New Jersey, priority 1997, dated 1999)
pIC50: −log10 of the molar value. Like-named read-outs stand apart in the source and are kept apart here.

What was measured:
human topoisomerase I = target: T1, human topoisomerase I (Homo sapiens, UniProt P11387); assay: Topo I-mediated DNA cleavage assay; assay type: biochemical
T1 construct: 15 amino acid fusion from pET-11a vector (N); made in house; host or cells: E. coli BL21(DE3)
T1 sequence (P11387 1-765): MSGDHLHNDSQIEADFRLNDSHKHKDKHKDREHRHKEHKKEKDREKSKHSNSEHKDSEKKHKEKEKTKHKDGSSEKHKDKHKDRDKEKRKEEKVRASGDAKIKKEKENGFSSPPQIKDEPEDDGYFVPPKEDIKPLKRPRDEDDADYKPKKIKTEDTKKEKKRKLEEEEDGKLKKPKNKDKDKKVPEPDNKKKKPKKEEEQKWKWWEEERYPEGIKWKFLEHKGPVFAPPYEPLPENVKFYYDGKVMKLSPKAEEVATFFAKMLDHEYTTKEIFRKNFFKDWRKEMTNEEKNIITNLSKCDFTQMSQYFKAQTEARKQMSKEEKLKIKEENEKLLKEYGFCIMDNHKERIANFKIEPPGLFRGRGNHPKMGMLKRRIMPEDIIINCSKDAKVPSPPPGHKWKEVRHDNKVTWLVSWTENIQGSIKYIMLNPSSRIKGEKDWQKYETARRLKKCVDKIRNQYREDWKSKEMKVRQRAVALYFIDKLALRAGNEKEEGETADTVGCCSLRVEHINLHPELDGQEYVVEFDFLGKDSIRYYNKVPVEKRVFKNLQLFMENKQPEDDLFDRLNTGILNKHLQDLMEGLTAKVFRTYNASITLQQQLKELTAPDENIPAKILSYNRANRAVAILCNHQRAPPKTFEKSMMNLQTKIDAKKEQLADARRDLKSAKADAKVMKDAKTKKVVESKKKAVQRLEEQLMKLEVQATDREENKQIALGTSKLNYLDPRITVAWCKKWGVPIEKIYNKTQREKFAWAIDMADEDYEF
Text: To obtain large quantity of human topoisomerase I, the human topoisomerase I cDNA was cloned into the pET-11a vector, in which transcription of the cDNA is under the control of the inducible T7 promoter (Studier et al., Methods in Enzymol., Vol. 185:60-89, San Diego: Academic Press (1990)). Briefly, a 3.4 kb DNA fragment containing the entire coding sequence of human topoisomerase I and approximately 1 kb of untranslated region downstream of the stop codon was isolated from the plasmid YCpGAL1-hTOP1 (Bjornsti et al., Cancer Res. 49:6318-6323 (1989)) by cutting at the BamHI and EcoRI sites. The vector pET-11a was cut with the same restriction enzymes, dephosphorylated and ligated to the insert in the proper reading frame downstream of the vector cloning site. […] Since the translational start in pET is positioned at an upstream NdeI site, the expressed topoisomerase I has a 15 amino acid fusion at its N-terminus. pET1B was then transformed into E. coli BL21 (DE3), and, upon induction with 0.4 mM IPTG for 1 hour, the bacterial lysate was analyzed by 10% SDS-PAGE. […] Briefly, E. coli cells were lysed by repeated sonic bursts. The sonic extract was made in 1 M NaCl and 6% polyethylene glycol (PEG) to remove nucleic acids. The PEG supernatant was chromatographed directly on a hydroxyapatite column. […] The eluted enzyme was dialyzed against 50% glycerol, 30 mM potassium phosphate (pH 7.0), 1 mM dithiothreitol (DTT) and 0.1 mM EDTA and stored at -20° C.
(§1) Cleavage assays for the recombinant topoisomerases I and calf thymus topoisomerases I and II were done as described (Liu et al., J. Biol. Chem. 258:15365-15370 (1983)). The plasmid YEpG DNA used for the cleavage assays was prepared and labeled at its 3'-end using the published procedures.

[1] = system: Human lymphoblast RPMI 8402 cells; assay: MTT-microtiter plate tetrazolinium cytotoxicity assay (MTA), RPMI 8402; assay type: cell-based
Method: (§2) The IC50 of the drugs tested were determined by the MTT-microtiter plate tetrazolinium cytotoxicity assay (MTA) (Mosmann, T., J. Immunol. Methods 65:55-63 (1983); Denizot et al., J. Immunol. Methods 89:271-277 (1986)). Human lymphoblast RPMI 8402 cells and their camptothecin-resistant CPT-K5 cells (Andoh et al., Proc. Natl. Acad. Sci., USA 84:5565-5569 (1987)) were kindly provided by Dr. Toshiwo Andoh (Aichi Cancer Center Research Institute, Nagoya, Japan). The cell lines A2780 and its camptothecin-resistant derivative CPT-2000 were a generous gift of Dr. Jaulang Hwang (Institute of Molecular Biology, Academia sinica, Taiwan). Cells (2000 cells/well, seeded in […] growth medium) were grown in suspension at 37° C. in 5% CO2 and maintained by regular passage in RPMI medium supplemented with 10% heat inactivated fetal bovine serum, L-glutamine (2 mM), penicillin (100 U/mi), and streptomycin (0.1 mg/ml). The cells were exposed continuously for 4 days to drug concentrations ranging from 100 ug/ml to 1.0 ng/ml in ten fold dilutions, and assayed at the end of the fourth day. Each concentration and the no drug control were repeated at least twice in 6 replica wells. The results were plotted and the IC50 then measured. The drug sensitive human epidermoid carcinoma KB 3-1 cell line and its vinblastine-selected multidrug-resistant variant KB-V1 cells (Akiyama et al., Genetics 11:117-126 (1985)) were kindly provided by Dr. Michael Gottesmann (National Cancer Institute). They were grown as monolayer cultures at 37° C. in 5% CO2 and maintained by regular passage in Dulbecco's minimal essential medium supplemented with 10% heat inactivated fetal bovine serum. KB-V1 cells were maintained in the presence of […] vinblastine.

[2] = system: camptothecin-resistant CPT-K5 cells; assay: MTT-microtiter plate tetrazolinium cytotoxicity assay (MTA), CPT-K5; assay type: cell-based, human
Method: as §2

[3] = target: T2, calf thymus topoisomerase II (Bos taurus, UniProt F1MDU7); assay: Topo II-mediated DNA cleavage assay; assay type: biochemical; conditions: concentration relative to VM26 (= 1) producing the same cleavage on plasmid DNA in the presence of calf thymus topoisomerase II
T2 construct: from tissue; host or cells: calf thymus glands
T2 sequence (F1MDU7 1-1532): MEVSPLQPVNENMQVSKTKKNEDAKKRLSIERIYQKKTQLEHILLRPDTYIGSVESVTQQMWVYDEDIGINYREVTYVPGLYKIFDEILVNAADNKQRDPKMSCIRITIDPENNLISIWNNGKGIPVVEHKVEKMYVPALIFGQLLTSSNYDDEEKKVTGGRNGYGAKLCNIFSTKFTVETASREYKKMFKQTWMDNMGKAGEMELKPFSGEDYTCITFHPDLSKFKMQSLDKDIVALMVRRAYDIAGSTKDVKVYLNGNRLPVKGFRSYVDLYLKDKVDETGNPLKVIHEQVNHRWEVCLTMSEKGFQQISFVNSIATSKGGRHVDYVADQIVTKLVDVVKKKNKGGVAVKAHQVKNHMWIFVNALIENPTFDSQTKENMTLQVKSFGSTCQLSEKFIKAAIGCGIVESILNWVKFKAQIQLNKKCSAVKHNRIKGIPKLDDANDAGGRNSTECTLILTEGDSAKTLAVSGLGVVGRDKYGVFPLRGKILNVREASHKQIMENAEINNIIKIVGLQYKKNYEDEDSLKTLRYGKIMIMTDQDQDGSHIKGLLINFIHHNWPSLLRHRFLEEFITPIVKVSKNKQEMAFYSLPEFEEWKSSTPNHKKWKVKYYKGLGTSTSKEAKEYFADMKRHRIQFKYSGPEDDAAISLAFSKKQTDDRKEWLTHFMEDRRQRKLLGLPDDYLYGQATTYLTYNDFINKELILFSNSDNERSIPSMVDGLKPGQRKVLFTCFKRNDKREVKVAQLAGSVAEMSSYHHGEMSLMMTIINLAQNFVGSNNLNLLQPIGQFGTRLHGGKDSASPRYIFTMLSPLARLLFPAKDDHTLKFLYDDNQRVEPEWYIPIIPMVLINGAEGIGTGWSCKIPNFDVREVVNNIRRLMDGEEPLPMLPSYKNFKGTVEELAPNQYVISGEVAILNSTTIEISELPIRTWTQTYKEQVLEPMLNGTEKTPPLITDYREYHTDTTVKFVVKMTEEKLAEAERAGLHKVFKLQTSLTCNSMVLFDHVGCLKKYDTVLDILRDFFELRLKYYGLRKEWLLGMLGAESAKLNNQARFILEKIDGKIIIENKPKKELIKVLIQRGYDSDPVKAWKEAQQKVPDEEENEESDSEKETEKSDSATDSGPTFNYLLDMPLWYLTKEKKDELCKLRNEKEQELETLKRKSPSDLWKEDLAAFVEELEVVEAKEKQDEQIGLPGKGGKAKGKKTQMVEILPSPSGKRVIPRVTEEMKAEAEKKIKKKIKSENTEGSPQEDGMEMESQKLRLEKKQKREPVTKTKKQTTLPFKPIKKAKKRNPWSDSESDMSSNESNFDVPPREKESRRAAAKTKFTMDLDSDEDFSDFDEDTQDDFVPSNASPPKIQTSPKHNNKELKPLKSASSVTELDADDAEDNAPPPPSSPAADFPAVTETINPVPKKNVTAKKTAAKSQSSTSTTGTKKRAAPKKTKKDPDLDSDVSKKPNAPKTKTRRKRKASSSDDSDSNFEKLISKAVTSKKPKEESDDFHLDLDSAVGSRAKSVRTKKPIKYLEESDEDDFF
Text: The plasmid pET11a and the E. coli strain BL21(DE3) used for enzyme expression were purchased from Novagen. IPTG was purchased from Sigma. The ECL system used for the Western blotting analysis of bacterial lysates was from Amersham (UK). All the restriction enzymes and Vent polymerase were from New England Biolabs. Mammalian topoisomerase II was isolated from calf thymus glands according to the published procedure (Halligan et al., J. Biol. Chem. 260:2475-2482 (1985)). The single copy yeast plasmids YCpGAL1 expressing various topoisomerase I genes in JN2-134 yeast strain were a kind gift of Dr. M-A. Bjornsti (Thomas Jefferson University, Philadelphia, Pa.). All bacterial and yeast media were from Difco (Detroit, Mich.), while cell culture media were purchased from Gibco-BRL (Gaithersburg, Md.).
as §1

[4] = Homo sapiens, RPMI 8402, 96 h, read-out: Cytotoxicity IC50, RPMI
[5] = Homo sapiens, CPT-K5, 96 h, read-out: Cytotoxicity IC50, CPT-K5
[6] = concentration relative to camptothecin (CPT = 1) producing the same cleavage on plasmid DNA in the presence of human topoisomerase I

Row | Compound | Topo I-mediated DNA cleavage (REC, Relative Effective Concentration) (human topoisomerase I) | pIC50 [1, 4] | pIC50 [2, 5] | Topo I-mediated DNA cleavage (REC, Relative Effective Concentration) (human topoisomerase I; [6]) | Topo II-mediated DNA cleavage (REC, Relative Effective Concentration) [3] | pIC50 ([1]; Homo sapiens, 96 h, RPMI 8402 cells, 4 days of continuous drug exposure, read-out: Cytotoxicity IC50, RPMI) | pIC50 ([2]; Homo sapiens, 96 h, camptothecin-resistant CPT-K5 cells, 4 days of continuous drug exposure, read-out: Cytotoxicity IC50, CPT-K5) | pIC50 ([1]; rpmi 8402 cells, 96 h) | pIC50 ([2]; cpt-k5 cells, 96 h)
1 | COc1cc(C2c3cc4c(cc3C(OC3OC5COC(c6cccs6)OC5C(O)C3O)C3COC(=O)C23)OCO4)cc(OC)c1O (stereo not drawn) [VM-26, reference compound] | > 1000 | 6.52 | 6.30 |  |  |  |  |  | 
2 | COc1cc2ccc3c(cc4cc(OC)c(OC)cc4[n+]3C)c2cc1OC [Compound 16a, 2,3,9,10-Tetramethoxy-7-methylbenz[a]acridinium methosulfate] |  |  |  | > 1000 | > 1000 | 4.60 | 4.63 |  | 
3 | COc1cc2ccc3c(C)c4cc(OC)c(OC)cc4nc3c2cc1OC [Compound 7, 2,3,9,10-Tetramethoxy-7-methylbenz[c]acridine] |  | 5.15 | 5.26 | > 1000 | > 1000 |  |  |  | 
4 | COc1cc2ccc3nc4cc5c(cc4cc3c2cc1OC)OCO5 [Compound 14b, 2,3,-Dimethoxy-9,10-methylenedioxybenz[a]acridine] |  | 5.35 | 5.12 | 1000 | > 1000 |  |  |  | 
5 | COc1cc2ccc3nc4ccccc4cc3c2cc1OC [Compound 14d, 2,3-Dimethoxy-benz[a]acridine] |  | 4.98 | 4.86 | 1000 | > 1000 |  |  |  | 
6 | Oc1cc2cc3c(ccc4cc(O)c(O)cc43)nc2cc1O [Compound 14g, 2,3,9,10-tetrahydroxybenz[a]acridine] |  | 4.77 | < 4.47 | 100 | > 1000 |  |  |  | 
7 | COc1cc2ccc3c(C)c4cc(OC)c(OC)cc4[n+](C)c3c2cc1OC [Compound 9, 2,3,9,10-Tetramethoxy-7,1 2-dimethylbenz [c]acridinium methosulfate] |  | 5.92 | 5.92 | > 1000 | > 1000 |  |  |  | 
8 | COc1cc2cc3c(ccc4cc(OC)c(OC)cc43)nc2cc1OC [Compound 14a, 2,3,9,10-Tetramethoxybenz[a]acridine] |  | 5.54 | 5.54 | 1000 | > 1000 |  |  |  | 
9 | COc1cc2cc3c(nc2cc1OC)CCc1ccccc1-3 [Compound 13c, 9,10-Dimethoxy-5,6-dihydrobenz[a]acridine] |  | 5.16 | 5.16 | 1000 | > 1000 |  |  |  | 
10 | COc1cc2c(cc1OC)-c1cc3cc(OC)c(OC)cc3[n+](C)c1CC2 [Compound 15a, 2,3,9,10-Tetramethoxy-7-methyl-5,6-dihydrobenz[a]acridinium methosulfate] |  | < 4.62 | < 4.62 | 100 | > 1000 |  |  |  | 
11 | COc1cc2cc3c(nc2cc1OC)CCc1cc(Cl)ccc1-3 [Compound 13j, 3-Chloro-9,10-dimethoxy-5,6-dihydrobenz[a]acridine] |  | 5.04 | 4.81 | 10 | > 1000 |  |  |  | 
12 | COc1cc2c(cc1OC)-c1nc3cc(OC)c(OC)cc3c(C)c1CC2 [Compound 6, 2,3,9,10-Tetramethoxy-7-methyl-5,6-dihydrobenz[c]acridine] |  | < 3.86 | < 3.86 | > 1000 | > 1000 |  |  |  | 
13 | CC[C@@]1(O)C(=O)OCc2c1cc1n(c2=O)Cc2cc3ccccc3nc2-1 [CPT, Camptothecin, reference compound] |  | 8.40 | < 5.00 | 1 | > 1000 |  |  |  | 
14 | COc1cc2c(cc1OC)-c1cc3ccccc3nc1CC2 [Compound 13d, 2,3-Dimethoxy-5,6-dihydrobenz[a]acridine] |  | 6.00 | 5.07 | 100 | > 1000 |  |  |  | 
15 | Methylenedioxy-dihydro-demethyl-coralyne [MDD-Coralyne, reference compound] |  |  |  | 0.1 |  |  |  | 5.09 | 4.57
16 | COc1cc2cc3c(nc2cc1OC)CCc1c-3ccc(OC)c1OC [Compound 13f, 5,6-Dihydro-3,4,9,10-tetramethoxybenz[a]acridine] |  | 4.85 | 4.85 | 100 | > 1000 |  |  |  | 
17 | COc1cc2cc3c4cc(OC)c(OC)cc4cc[n+]3c(C)c2cc1OC [Coralyne, reference compound] |  | 5.31 | 4.70 | 1 | > 1000 |  |  |  | 
